Results: patent US11203773B2, “Designer ribosomes and methods of use thereof for incorporating non-standard amino acids into polypeptides” (Yale University, priority 2016, dated 2021)

What was measured:
E. coli GluRS [1] = target: T1, E. coli GluRS (Escherichia coli, UniProt P04805); experiment: Deacylation assay of [32P]-aminoacyl-tRNA; type: biochemical; design: made in house; host or cells: E. coli BL21(DE3); details: for krev (apparent rate of deacylation): deacylation of aminoacyl-tRNA, GluRS 5.0 μM, 25° C.
T1 sequence (P04805 whole entry): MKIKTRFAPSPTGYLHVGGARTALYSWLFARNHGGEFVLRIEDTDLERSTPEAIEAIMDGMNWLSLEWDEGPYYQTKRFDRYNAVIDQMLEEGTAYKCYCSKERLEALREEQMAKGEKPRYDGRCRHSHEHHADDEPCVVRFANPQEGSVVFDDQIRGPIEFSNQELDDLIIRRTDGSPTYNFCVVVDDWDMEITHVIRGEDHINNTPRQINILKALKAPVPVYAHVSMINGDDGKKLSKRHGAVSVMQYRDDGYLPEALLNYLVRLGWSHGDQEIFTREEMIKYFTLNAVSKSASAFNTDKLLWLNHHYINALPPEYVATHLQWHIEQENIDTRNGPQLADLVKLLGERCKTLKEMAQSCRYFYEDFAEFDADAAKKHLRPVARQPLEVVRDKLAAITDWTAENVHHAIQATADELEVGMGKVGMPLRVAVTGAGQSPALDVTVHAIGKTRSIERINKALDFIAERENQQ
Experimental: (§3) Deacylation assays. Large scale (200 μL) aminoacylation reactions were initiated using the conditions described above (iv). The reactions were allowed to proceed for 1 h at 37° C., after which each reaction mixture was phenol/chloroform extracted. In each case, the aminoacylated tRNA product was ethanol precipitated, and the buffer was exchanged using a micro Bio-Spin 6 column (BioRad) following the procedure specified by the manufacturer and 100 mM HEPES (pH 8.0) containing 100 mM KCl. The precise extent of aminoacylation was calculated using the procedure described above; the 2 μM concentration corresponds to total aminoacylated tRNA. Assays were performed at 25° C. in a 50 μL reaction with 2 μM [^32P]-aminoacyl-tRNA in 100 mM HEPES (pH 7.0) containing 100 mM KCl and 15 mM MgCl2.

E. coli GluRS [2] = target: T1, E. coli GluRS; experiment: Adenylation of α- and β3-amino acids, pyrophosphate exchange assay; details: for kcat (min^−1) or RSA (^32P-ATP formed min^−1 enzyme μM^−1): 25° C., pH 7.0
Experimental: (§4) Adenylation of α- and β-Amino Acids Catalyzed by E. coli PheRS, GlyRS, MetRS, and GluRS. […] Briefly, assay mixtures (50 μL) assembled at 25° C. contained the requisite α- or β^3-amino acid substrate (between 5 μM and 5 mM) in 100 mM HEPES (pH 7.0) containing 100 mM KCl, 15 mM MgCl2, 2 mM ATP, 0.5 mM NaPPi, and 50 μCi [^32P]-NaPPi). Reactions were initiated upon addition of enzyme (10 nM MetRS, 10 nM PheRS, or 50 nM GlyRS; 100 nM GluRS for reactions with α-Glu or 1.13 μM GluRS for reactions with β^3-Glu), incubated for various times (10 sec to 10 min), and halted by adding a 5 μL reaction aliquot to 100 μL quenching solution (10% charcoal, 0.5% HCl). 50 μL of 200 mM NaPPi in 1.5 N HCl was then added to each quenched reaction to decrease nonspecific binding of pyrophosphate to the charcoal. Each quenched reaction was then filtered through Whatman filter paper (number 3), previously washed with washing solution (200 mM NaPPi in 1 N HCl) using a 96-well BIO-DOT® apparatus (BioRad). Each well of the apparatus was then washed four times with 200 μL aliquots of washing solution (by pipetting washing solution up and down at least 10 times per wash) to minimize nonspecific binding of pyrophosphate to charcoal. Each experimental well was paired with an analogous control well (no-enzyme control) that lacked enzyme; a single membrane contained time points for both α- and β^3-amino acid substrates and all no-enzyme controls. The membrane was allowed to dry and was protected with a sheet of Microseal B adhesive seals (Biorad) prior to exposure to a BAS Storage Phosphor screen. Screens were imaged on a Typhoon 9500FLA biomolecule imager and the signal intensity of each dot was quantified using ImageJ to determine the relative amount of [^32P]-ATP formed as a function of time (Ctime). Each raw value were corrected by subtracting the intensity of the dot corresponding to the appropriate no-enzyme control (Cblank) and the resulting corrected values of Ccorr (representing the relative amounts of ^32P-ATP formed) were plotted as a function of time to determine values of relative ^32P-ATP formed per minute. Those values were divided by the concentration of enzyme used, and the data was plotted as relative specific activity (^32P-ATP formed min^−1×μM^−1 enzyme) and fitted using Prism by performing nonlinear regression using the least squares method and Equation 1 to obtain RSA (relative specific activity) and KM values (Equation 1 and Table 2).
(§5) In Equation 1, v is the apparent relative specific activity (relative ^32P-ATP formed per minute) obtained at each substrate concentration divided by the enzyme concentration, RSA is the relative specific activity, S is the concentration of substrate, and KM is the Michaelis-Menten constant.

E. coli GluRS [3] = target: T1, E. coli GluRS; experiment: Aminoacylation of 32P-tRNA with α- and β3-amino acids; type: biochemical; design: made in house; host or cells: E. coli BL21(DE3)
[4] = system: DHFR position 128 translated in E. coli BL21 (DE3); experiment: Spectral counting (LC-MS/MS of tryptic peptides) of β3-(p-Br)Phe and α-Phe incorporation into DHFR in vivo; type: cell-based; details: spectral counting
Text: (§1) To evaluate the extent of in vivo β^3-amino acid incorporation, BL21 (DE3) cells were co-transformed via electroporation (vide infra) with two plasmids. […] The other plasmid encoded either the WT rrnb sequence (pLK35-rrnb), the 040329 mutant reported by Hecht (pLK35-040329.rrnb), or the P7A7 mutant (pLK35-P7A7.rrnb) identified during the puromycin sensitivity screen described above.
ii. β^3-amino acid incorporation. The subsequent protocol for in vivo β^3-amino acid incorporation employed minimal media and was adapted from procedures reported by Tirrell and Cropp (Liu, et al., Bioorg Med Chem Lett, 20:5613 (2010); Mandavi, et al., J Am Chem Soc, 135:2979 (2013)). Briefly, all 5 mL of the co-transformed cells prepared as described above were diluted into 100 mL of LB containing […] of kanamycin and […] of carbenicillin and grown to OD600=1.0, spun down, and then resuspended in 1/10th the original volume of 19/20 minimal media (10.5 g/L M9 salts, 0.1 mM CaCl2, 1 mM MgSO4, 1% glycerol, 100 μM of each amino acid (minus α-Phe), 25 mg/L thiamine, […] carbenicillin, 30 ng/mL kanamycin, 1 mM IPTG) supplemented with 1 mM of α-Phe or a β^3-Phe analog. Cells were grown overnight (18 h) at 37° C. while shaking (200 rpm). The cells were harvested by centrifugation (10 min at 4000×g) and resuspended in lysis buffer (50 mM NaH2PO4, 300 mM NaCl, 10 mM imidazole (pH 8.0)). Lysis was performed by sonication (Branson Sonifier 250) with 5 cycles of 20 s on, 20 s off. Lysed cells were then centrifuged for 20 min at 15000×g. The clarified cell lysate was incubated with Ni-NTA resin (Qiagen) for 1 h while gently rotating at 4° C. The Ni-NTA column was washed with lysis buffer prior to eluting proteins with elution buffer (50 mM NaH2PO4, 300 mM NaCl, 300 mM imidazole (pH 8.0)). Elutions were analyzed with SDS-PAGE to prepare material for in-gel trypsin digestions. Controls included side-by-side growths in (1) unsupplemented 19/20 minimal media, which contains only low levels of α-Phe present (negative control); (2). […]

[5] = system: BL21(DE3) cells expressing 040329 ribosomes along with WT ribosomes; experiment: Expression of DHFR in 19/20 minimal media supplemented with amino acid (SDS-PAGE); type: cell-based, E. coli; details: 040329 + WT ribosomes, media supplemented with 1 mM of the amino acid
Text: as §1
(§2) ii. β^3-amino acid incorporation. The subsequent protocol for in vivo β^3-amino acid incorporation employed minimal media and was adapted from procedures reported by Tirrell and Cropp (Liu, et al., Bioorg Med Chem Lett, 20:5613 (2010); Mandavi, et al., J Am Chem Soc, 135:2979 (2013)). Briefly, all 5 mL of the co-transformed cells prepared as described above were diluted into 100 mL of LB containing 50 ng/mL of kanamycin and […] of carbenicillin and grown to OD600=1.0, spun down, and then resuspended in 1/10th the original volume of 19/20 minimal media (10.5 g/L M9 salts, 0.1 mM CaCl2, 1 mM MgSO4, 1% glycerol, 100 μM of each amino acid (minus α-Phe), 25 mg/L thiamine, […] carbenicillin, 30 ng/mL kanamycin, 1 mM IPTG) supplemented with 1 mM of α-Phe or a β^3-Phe analog. Cells were grown overnight (18 h) at 37° C. while shaking (200 rpm). The cells were harvested by centrifugation (10 min at 4000×g) and resuspended in lysis buffer (50 mM NaH2PO4, 300 mM NaCl, 10 mM imidazole (pH 8.0)). Lysis was performed by sonication (Branson Sonifier 250) with 5 cycles of 20 s on, 20 s off. Lysed cells were then centrifuged for 20 min at 15000×g. The clarified cell lysate was incubated with Ni-NTA resin (Qiagen) for 1 h while gently rotating at 4° C. The Ni-NTA column was washed with lysis buffer prior to eluting proteins with elution buffer (50 mM NaH2PO4, 300 mM NaCl, 300 mM imidazole (pH 8.0)). Elutions were analyzed with SDS-PAGE to prepare material for in-gel trypsin digestions. Controls included side-by-side growths in (1) unsupplemented 19/20 minimal media, which contains only low levels of α-Phe present (negative control); (2). 19/20 minimal media supplemented with 1 mM α-Phe (positive control) and (3) and 19/20 minimal media supplemented with 1 mM β^3-Gly (negative control; β^3-aa that is not a β^3-Phe analog).

[6] = system: BL21(DE3) cells expressing P7A7 ribosomes along with WT ribosomes; experiment: as above; type: cell-based, E. coli; details: media supplemented with 1 mM of the amino acid
Text: as §1, §2

[7] = system: BL21(DE3) cells expressing only WT ribosomes; experiment: as above; type: cell-based, E. coli
Text: as §1, §2

E. coli TyrRS [8] = target: T2, E. coli TyrRS (Escherichia coli, UniProt P0AGJ9); experiment: Adenylation of α- and β-Tyr, coupled MESG/PNP pyrophosphate release assay; type: biochemical
T2 construct: made in house; host or cells: E. coli BL21(DE3)
T2 sequence (P0AGJ9 1-424): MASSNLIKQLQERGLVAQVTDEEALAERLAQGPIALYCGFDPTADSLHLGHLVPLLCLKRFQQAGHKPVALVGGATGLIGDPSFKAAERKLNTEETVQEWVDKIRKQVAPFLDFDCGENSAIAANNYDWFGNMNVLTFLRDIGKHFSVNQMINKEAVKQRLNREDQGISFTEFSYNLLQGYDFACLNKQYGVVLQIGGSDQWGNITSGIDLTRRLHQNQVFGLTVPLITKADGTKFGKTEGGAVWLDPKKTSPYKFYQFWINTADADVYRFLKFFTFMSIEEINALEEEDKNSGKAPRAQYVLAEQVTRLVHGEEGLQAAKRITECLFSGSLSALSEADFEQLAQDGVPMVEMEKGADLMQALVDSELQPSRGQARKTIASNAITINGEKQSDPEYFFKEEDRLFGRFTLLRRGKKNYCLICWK
Text: ii. Adenylation of α- and β-Tyr catalyzed by E. coli TyrRS. These reactions were monitored spectrophotometrically in a coupled assay using inorganic pyrophosphatase, 2-amino-6-mercapto-7-methylpurine ribonucleoside (MESG), and purine nucleoside phosphorylase (PNP) to monitor the rate of pyrophosphate release, according to the manufacturer's instructions (Enzcheck Pyrophosphate assay kit, Thermo Fisher Scientific). The assay measures the increase in absorbance at 360 nm due to MESG phosphorolysis, and two molecules of MESG are consumed per pyrophosphate generated. This direct assay could be employed for TyrRS because the rate of ATP hydrolysis (in the absence of amino acid substrate) was insignificant, which was not the case for the other synthetases which therefore required the more laborious pyrophosphate exchange assay described above. […] For TyrRS, kcat is the turnover number (units of reciprocal time) since the change in absorbance can be directly correlated to concentration of pyrophosphate formed.

E. coli TyrRS [9] = target: T2, E. coli TyrRS; experiment: Aminoacylation of 32P-tRNA with α- and β3-amino acids; type: biochemical
E. coli TyrRS [10] = target: T2, E. coli TyrRS; experiment: Deacylation assay of [32P]-aminoacyl-tRNA; type: biochemical
Experimental: as §3

E. coli PheRS [11] = target: T3, E. coli PheRS (Escherichia coli, UniProt P08312); experiment: Adenylation of α- and β3-amino acids, pyrophosphate exchange assay
T3 sequence (P08312 whole entry): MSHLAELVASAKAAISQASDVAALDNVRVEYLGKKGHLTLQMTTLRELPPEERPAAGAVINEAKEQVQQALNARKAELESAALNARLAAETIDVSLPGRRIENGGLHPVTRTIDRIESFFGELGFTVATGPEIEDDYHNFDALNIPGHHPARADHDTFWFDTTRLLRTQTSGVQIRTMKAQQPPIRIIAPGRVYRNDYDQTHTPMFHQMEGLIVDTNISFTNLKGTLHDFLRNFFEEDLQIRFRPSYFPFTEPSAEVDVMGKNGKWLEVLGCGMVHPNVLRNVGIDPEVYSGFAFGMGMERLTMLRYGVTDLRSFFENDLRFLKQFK
T3 sequence (P07395 whole entry partner): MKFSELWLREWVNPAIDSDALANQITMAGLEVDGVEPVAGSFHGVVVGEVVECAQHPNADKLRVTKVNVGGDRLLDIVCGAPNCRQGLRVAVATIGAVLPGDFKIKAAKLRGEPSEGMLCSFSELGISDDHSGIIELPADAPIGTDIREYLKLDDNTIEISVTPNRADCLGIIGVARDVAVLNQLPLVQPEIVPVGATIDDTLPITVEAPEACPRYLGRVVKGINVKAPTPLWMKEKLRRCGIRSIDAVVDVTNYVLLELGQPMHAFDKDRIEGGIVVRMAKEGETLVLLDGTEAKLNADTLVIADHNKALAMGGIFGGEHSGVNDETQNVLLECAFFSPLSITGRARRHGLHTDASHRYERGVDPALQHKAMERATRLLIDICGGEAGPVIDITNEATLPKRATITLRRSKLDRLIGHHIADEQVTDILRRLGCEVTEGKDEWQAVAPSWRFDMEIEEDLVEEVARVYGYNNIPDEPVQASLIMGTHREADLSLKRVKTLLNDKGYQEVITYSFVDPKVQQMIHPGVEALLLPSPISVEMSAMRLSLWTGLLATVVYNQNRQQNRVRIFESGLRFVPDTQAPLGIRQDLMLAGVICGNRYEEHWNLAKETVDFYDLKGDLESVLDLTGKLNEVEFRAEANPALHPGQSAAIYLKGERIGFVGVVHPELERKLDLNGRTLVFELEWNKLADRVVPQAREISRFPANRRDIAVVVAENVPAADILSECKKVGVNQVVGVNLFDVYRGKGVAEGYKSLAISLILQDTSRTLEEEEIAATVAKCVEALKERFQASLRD
Experimental: as §4, §5

E. coli PheRS [12] = target: T3, E. coli PheRS; experiment: Aminoacylation of 32P-tRNA with α- and β3-amino acids; type: biochemical; design: made in house; host or cells: E. coli BL21(DE3)
E. coli PheRS [13] = target: T3, E. coli PheRS; experiment: Deacylation assay of [32P]-aminoacyl-tRNA; type: biochemical; design: made in house; host or cells: E. coli BL21(DE3)
Experimental: as §3

N[C@@H](CCC(=O)O)C(=O)O [α-Glu, Glutamic Acid]
krev (apparent rate of deacylation) (E. coli GluRS [1]): 0.32 ± 0.14 min⁻¹ | Ratio (α/β) of krev (E. coli GluRS [1]; deacylation, GluRS): 0.73 ± 0.42 | Ratio (α-/β-) of KM (E. coli GluRS [2]): 0.35 ± 0.27 | Ratio (α-/β-) of RSA (E. coli GluRS [2]): 31.6 ± 6.4 | Ratio (α-/β-) of kcat/KM (E. coli GluRS [2]): 89.0 ± 70^ | kcat (min^−1) or RSA (^32P-ATP formed min^−1 enzyme μM^−1) (E. coli GluRS [2]): 1349 ± 206 ^32P-ATP formed min^−1 enzyme μM^−1 | Ratio (α/β) of KM (E. coli GluRS [3]): 0.94 ± 0.60 | Ratio (α/β) of kcat (E. coli GluRS [3]): 61.2 ± 9.1 | Ratio (α/β) of kcat/KM (E. coli GluRS [3]): 82.78 ± 68.2

NC(CC(=O)O)Cc1ccc(Br)cc1 (stereo not drawn) [β^3-(p-Br)Phe]
lower incorporation of β^3-(p-Br)Phe relative to α-Phe ([4]; cells expressing 040329 ribosomes): 30 fold | lower incorporation of β^3-(p-Br)Phe relative to α-Phe ([4]; cells expressing P7A7 ribosomes): 10 fold | level of DHFR [5]: significant levels | level of DHFR [6]: highest levels | amount of DHFR generated ([7]; 19/20 minimal media supplemented with 1 mM of the amino acid): trace amounts

N[C@@H](Cc1ccc(O)cc1)C(=O)O [α-Tyr, Tyrosine]
Ratio (α-/β-) of KM (E. coli TyrRS [8]): 0.047 ± 0.03 | Ratio (α-/β-) of kcat (E. coli TyrRS [8]): 46.2 ± 7.7 | Ratio (α-/β-) of kcat/KM (E. coli TyrRS [8]): 972.6 ± 632.0 | Ratio (α/β) of kcat (E. coli TyrRS [9]): 56.3 ± 6.8 | Ratio (α/β) of kcat/KM (E. coli TyrRS [9]): 1541.7 ± 724.3 | krev (apparent rate of deacylation) (E. coli TyrRS [10]; deacylation of aminoacyl-tRNA, TyrRS 1 μM, 25° C.): 1.9 ± 1.3 min⁻¹ | Ratio (α/β) of krev (E. coli TyrRS [10]; deacylation, TyrRS): 1.01 ± 0.75

N[C@@H](Cc1ccccc1)C(=O)O [α-Phe, Phenylalanine]
Ratio (α-/β-) of KM (E. coli PheRS [11]): 0.18 ± 0.11 | Ratio (α-/β-) of RSA (E. coli PheRS [11]): 1.4 ± 0.3 | Ratio (α-/β-) of kcat/KM (E. coli PheRS [11]): 8.06 ± 5.63 | kcat (min^−1) or RSA (^32P-ATP formed min^−1 enzyme μM^−1) (E. coli PheRS [11]; RSA, 25° C., pH 7.0): 59.1 ± 7.1 ^32P-ATP formed min^−1 enzyme μM^−1 | Ratio (α/β) of KM (E. coli PheRS [12]): 1.7 ± 0.9 | Ratio (α/β) of kcat (E. coli PheRS [12]): 3.7 ± 0.7 | Ratio (α/β) of kcat/KM (E. coli PheRS [12]): 2.2 ± 1.3 | kcat (E. coli PheRS [12]; 2 μM tRNA): 0.0143 ± 0.00183 s⁻¹ | krev (apparent rate of deacylation) (E. coli PheRS [13]; deacylation of aminoacyl-tRNA, PheRS 500 nM, 25° C.): 0.15 ± 0.008 min⁻¹ | Ratio (α/β) of krev (E. coli PheRS [13]; deacylation, PheRS): 0.49 ± 0.05 | level of DHFR [5]: significant levels | level of DHFR [6]: lower levels | level of DHFR, higher than trace amounts ([7]; α-Phe added): approximately 8 fold

NC(CCC(=O)O)CC(=O)O (stereo not drawn) [β-Glu, β^3-glutamic acid]
krev (apparent rate of deacylation) (E. coli GluRS [1]): 0.43 ± 0.15 min⁻¹ | Km (E. coli GluRS [2]): 215 ± 110 µM | kcat (min^−1) or RSA (^32P-ATP formed min^−1 enzyme μM^−1) (E. coli GluRS [2]): 42.7 ± 5.8 ^32P-ATP formed min^−1 enzyme μM^−1 | Km (E. coli GluRS [3]): 375 ± 271 µM | kcat (E. coli GluRS [3]; 2 μM tRNA): 1.25e-05 ± 1.5e-06 s⁻¹
